Laboratory results published in US7045116B2, “Treatment of osteomyelitis with radiopharmaceuticals” (priority 2001, dated 2006).

System: not listed separately
Assay: Biodistribution of radiopharmaceuticals in rats with tourniquet on left hind leg
Assay type: in vivo, Sprague-Dawley rats
Conditions: Femur; tourniquet 20 minute
Excerpt: Rat biodistribution studies were done on Male Sprague-Dawley rats weighing 180–200 g that had been acclimated for approximately one week prior to this study. Four test complexes were used, Ho-DOTMP (Example 3), Ho-EDTMP (Example 4), Sm-DOTMP (Example 5) and Sm-EDTMP (Example 6). The rats were placed in a restraining cage that afforded accessibility to the left hind leg and tail. Prior to injection a tie wrap tourniquet was placed on the left hind femur above the knee to restrict blood flow. The amount of pressure induced by the tourniquet was standardized by using a tie wrap gun and was sufficient to stop arterial flow. Three rats per complex each received a 100.0 μL intravenous injection in a lateral tail vein. The tourniquets were allowed to remain in place for 5, 10 or 20 minutes post injection and were then removed. The rats were then watched for two hours, the usual biodistribution period used to allow excretion of all radioactive complexes not bound to tissue. The rats were then sacrificed for removal of tibias. The number of radioactive counts were then determined and compared to the average of number of counts of three 100.0 μL standards of the same material that was injected. Several additional tissues (femur, injection site, liver, kidney, spleen, muscle, and blood) were collected and counted for rats that had the 20 minutes restricted blood flow to check for expected renal excretion of radioactive complexes.
This reflects the concentration of the radioactive complex in the bone. Table 1 combines the data on the radioactivity found in the tibias of the rats from Examples 3 to 6 for each of the three times of tourniquet placement. Table 2 combines the data on the radioactivity found in the femurs of the rats from Examples 3 to 6 for the tourniquets applied for 20 minutes. The degree of “protection” of the bone by the tourniquet can be seen by comparison of the radioactivity in the bones on the left side (“protected” by the tourniquet for the time specified) as compared to the corresponding bones on the right side (fully exposed to the systemic, intravenous dose).

Structure (SMILES) | Dose per Gram in Left Leg as a Percentage of Dose per Gram in Right Leg
O=P(O)(O)CN1CCN(CP(=O)(O)O)CCN(CP(=O)(O)O)CCN(CP(=O)(O)O)CC1.[Ho+3] [Ho-DOTMP] | 24%
O=P(O)(O)CN1CCN(CP(=O)(O)O)CCN(CP(=O)(O)O)CCN(CP(=O)(O)O)CC1.[Sm+3] [Sm-DOTMP] | 22%
O=P(O)(O)CN(CCN(CP(=O)(O)O)CP(=O)(O)O)CP(=O)(O)O.[Sm+3] [Sm-EDTMP] | 38%
O=P(O)(O)CN(CCN(CP(=O)(O)O)CP(=O)(O)O)CP(=O)(O)O.[Ho+3] [Ho-EDTMP] | 54%

Same assay, conditions: Left Femur (partially protected by tourniquet); tourniquet 20 minute; i.v. tail vein

Structure (SMILES) | Femoral Percentage Dose per Gram
O=P(O)(O)CN1CCN(CP(=O)(O)O)CCN(CP(=O)(O)O)CCN(CP(=O)(O)O)CC1.[Ho+3] [Ho-DOTMP] | 1.33 Percentage Dose per Gram
O=P(O)(O)CN1CCN(CP(=O)(O)O)CCN(CP(=O)(O)O)CCN(CP(=O)(O)O)CC1.[Sm+3] [Sm-DOTMP] | 1.40 Percentage Dose per Gram
O=P(O)(O)CN(CCN(CP(=O)(O)O)CP(=O)(O)O)CP(=O)(O)O.[Sm+3] [Sm-EDTMP] | 2.05 Percentage Dose per Gram
O=P(O)(O)CN(CCN(CP(=O)(O)O)CP(=O)(O)O)CP(=O)(O)O.[Ho+3] [Ho-EDTMP] | 2.33 Percentage Dose per Gram

Same assay, conditions: Left Tibia (protected by tourniquet); tourniquet 5 minute; i.v. tail vein; sacrifice after two hours

Structure (SMILES) | Tibial Percentage Dose per Gram
O=P(O)(O)CN1CCN(CP(=O)(O)O)CCN(CP(=O)(O)O)CCN(CP(=O)(O)O)CC1.[Ho+3] [Ho-DOTMP] | 3.19 Percentage Dose per Gram
O=P(O)(O)CN1CCN(CP(=O)(O)O)CCN(CP(=O)(O)O)CCN(CP(=O)(O)O)CC1.[Sm+3] [Sm-DOTMP] | 4.82 Percentage Dose per Gram
O=P(O)(O)CN(CCN(CP(=O)(O)O)CP(=O)(O)O)CP(=O)(O)O.[Sm+3] [Sm-EDTMP] | 5.33 Percentage Dose per Gram
O=P(O)(O)CN(CCN(CP(=O)(O)O)CP(=O)(O)O)CP(=O)(O)O.[Ho+3] [Ho-EDTMP] | 1.35 Percentage Dose per Gram

Same assay, conditions: Left Tibia (protected by tourniquet); tourniquet 10 minute; i.v. tail vein; sacrifice after two hours

Structure (SMILES) | Tibial Percentage Dose per Gram
O=P(O)(O)CN1CCN(CP(=O)(O)O)CCN(CP(=O)(O)O)CCN(CP(=O)(O)O)CC1.[Ho+3] [Ho-DOTMP] | 3.41 Percentage Dose per Gram
O=P(O)(O)CN1CCN(CP(=O)(O)O)CCN(CP(=O)(O)O)CCN(CP(=O)(O)O)CC1.[Sm+3] [Sm-DOTMP] | 3.38 Percentage Dose per Gram
O=P(O)(O)CN(CCN(CP(=O)(O)O)CP(=O)(O)O)CP(=O)(O)O.[Sm+3] [Sm-EDTMP] | 2.56 Percentage Dose per Gram
O=P(O)(O)CN(CCN(CP(=O)(O)O)CP(=O)(O)O)CP(=O)(O)O.[Ho+3] [Ho-EDTMP] | 3.49 Percentage Dose per Gram

Same assay, conditions: Left Tibia (protected by tourniquet); tourniquet 20 minute; i.v. tail vein; sacrifice after two hours

Structure (SMILES) | Tibial Percentage Dose per Gram
O=P(O)(O)CN1CCN(CP(=O)(O)O)CCN(CP(=O)(O)O)CCN(CP(=O)(O)O)CC1.[Ho+3] [Ho-DOTMP] | 1.35 Percentage Dose per Gram
O=P(O)(O)CN1CCN(CP(=O)(O)O)CCN(CP(=O)(O)O)CCN(CP(=O)(O)O)CC1.[Sm+3] [Sm-DOTMP] | 2.06 Percentage Dose per Gram
O=P(O)(O)CN(CCN(CP(=O)(O)O)CP(=O)(O)O)CP(=O)(O)O.[Sm+3] [Sm-EDTMP] | 2.04 Percentage Dose per Gram
O=P(O)(O)CN(CCN(CP(=O)(O)O)CP(=O)(O)O)CP(=O)(O)O.[Ho+3] [Ho-EDTMP] | 1.25 Percentage Dose per Gram

Same assay, conditions: Right Femur (unprotected); tourniquet 20 minute; i.v. tail vein

Structure (SMILES) | Femoral Percentage Dose per Gram
O=P(O)(O)CN1CCN(CP(=O)(O)O)CCN(CP(=O)(O)O)CCN(CP(=O)(O)O)CC1.[Ho+3] [Ho-DOTMP] | 5.59 Percentage Dose per Gram
O=P(O)(O)CN1CCN(CP(=O)(O)O)CCN(CP(=O)(O)O)CCN(CP(=O)(O)O)CC1.[Sm+3] [Sm-DOTMP] | 6.46 Percentage Dose per Gram
O=P(O)(O)CN(CCN(CP(=O)(O)O)CP(=O)(O)O)CP(=O)(O)O.[Sm+3] [Sm-EDTMP] | 5.44 Percentage Dose per Gram
O=P(O)(O)CN(CCN(CP(=O)(O)O)CP(=O)(O)O)CP(=O)(O)O.[Ho+3] [Ho-EDTMP] | 4.31 Percentage Dose per Gram

Same assay, conditions: Right Tibia (unprotected); tourniquet 5 minute; i.v. tail vein; sacrifice after two hours

Structure (SMILES) | Tibial Percentage Dose per Gram
O=P(O)(O)CN1CCN(CP(=O)(O)O)CCN(CP(=O)(O)O)CCN(CP(=O)(O)O)CC1.[Ho+3] [Ho-DOTMP] | 7.06 Percentage Dose per Gram
O=P(O)(O)CN1CCN(CP(=O)(O)O)CCN(CP(=O)(O)O)CCN(CP(=O)(O)O)CC1.[Sm+3] [Sm-DOTMP] | 7.91 Percentage Dose per Gram
O=P(O)(O)CN(CCN(CP(=O)(O)O)CP(=O)(O)O)CP(=O)(O)O.[Sm+3] [Sm-EDTMP] | 6.73 Percentage Dose per Gram
O=P(O)(O)CN(CCN(CP(=O)(O)O)CP(=O)(O)O)CP(=O)(O)O.[Ho+3] [Ho-EDTMP] | 1.60 Percentage Dose per Gram

Same assay, conditions: Right Tibia (unprotected); tourniquet 10 minute; i.v. tail vein; sacrifice after two hours

Structure (SMILES) | Tibial Percentage Dose per Gram
O=P(O)(O)CN1CCN(CP(=O)(O)O)CCN(CP(=O)(O)O)CCN(CP(=O)(O)O)CC1.[Ho+3] [Ho-DOTMP] | 7.52 Percentage Dose per Gram
O=P(O)(O)CN1CCN(CP(=O)(O)O)CCN(CP(=O)(O)O)CCN(CP(=O)(O)O)CC1.[Sm+3] [Sm-DOTMP] | 6.79 Percentage Dose per Gram
O=P(O)(O)CN(CCN(CP(=O)(O)O)CP(=O)(O)O)CP(=O)(O)O.[Sm+3] [Sm-EDTMP] | 6.17 Percentage Dose per Gram
O=P(O)(O)CN(CCN(CP(=O)(O)O)CP(=O)(O)O)CP(=O)(O)O.[Ho+3] [Ho-EDTMP] | 6.95 Percentage Dose per Gram

Same assay, conditions: Right Tibia (unprotected); tourniquet 20 minute; i.v. tail vein; sacrifice after two hours

Structure (SMILES) | Tibial Percentage Dose per Gram
O=P(O)(O)CN1CCN(CP(=O)(O)O)CCN(CP(=O)(O)O)CCN(CP(=O)(O)O)CC1.[Ho+3] [Ho-DOTMP] | 6.39 Percentage Dose per Gram
O=P(O)(O)CN1CCN(CP(=O)(O)O)CCN(CP(=O)(O)O)CCN(CP(=O)(O)O)CC1.[Sm+3] [Sm-DOTMP] | 8.34 Percentage Dose per Gram
O=P(O)(O)CN(CCN(CP(=O)(O)O)CP(=O)(O)O)CP(=O)(O)O.[Sm+3] [Sm-EDTMP] | 5.73 Percentage Dose per Gram
O=P(O)(O)CN(CCN(CP(=O)(O)O)CP(=O)(O)O)CP(=O)(O)O.[Ho+3] [Ho-EDTMP] | 5.33 Percentage Dose per Gram

Same assay, conditions: Tibia; tourniquet 5 minute

Structure (SMILES) | Dose per Gram in Left Leg as a Percentage of Dose per Gram in Right Leg
O=P(O)(O)CN1CCN(CP(=O)(O)O)CCN(CP(=O)(O)O)CCN(CP(=O)(O)O)CC1.[Ho+3] [Ho-DOTMP] | 45%
O=P(O)(O)CN1CCN(CP(=O)(O)O)CCN(CP(=O)(O)O)CCN(CP(=O)(O)O)CC1.[Sm+3] [Sm-DOTMP] | 61%
O=P(O)(O)CN(CCN(CP(=O)(O)O)CP(=O)(O)O)CP(=O)(O)O.[Sm+3] [Sm-EDTMP] | 79%
O=P(O)(O)CN(CCN(CP(=O)(O)O)CP(=O)(O)O)CP(=O)(O)O.[Ho+3] [Ho-EDTMP] | 84%

Same assay, conditions: Tibia; tourniquet 10 minute

Structure (SMILES) | Dose per Gram in Left Leg as a Percentage of Dose per Gram in Right Leg
O=P(O)(O)CN1CCN(CP(=O)(O)O)CCN(CP(=O)(O)O)CCN(CP(=O)(O)O)CC1.[Ho+3] [Ho-DOTMP] | 45%
O=P(O)(O)CN1CCN(CP(=O)(O)O)CCN(CP(=O)(O)O)CCN(CP(=O)(O)O)CC1.[Sm+3] [Sm-DOTMP] | 50%
O=P(O)(O)CN(CCN(CP(=O)(O)O)CP(=O)(O)O)CP(=O)(O)O.[Sm+3] [Sm-EDTMP] | 41%
O=P(O)(O)CN(CCN(CP(=O)(O)O)CP(=O)(O)O)CP(=O)(O)O.[Ho+3] [Ho-EDTMP] | 50%

Same assay, conditions: Tibia; tourniquet 20 minute

Structure (SMILES) | Dose per Gram in Left Leg as a Percentage of Dose per Gram in Right Leg
O=P(O)(O)CN1CCN(CP(=O)(O)O)CCN(CP(=O)(O)O)CCN(CP(=O)(O)O)CC1.[Ho+3] [Ho-DOTMP] | 21%
O=P(O)(O)CN1CCN(CP(=O)(O)O)CCN(CP(=O)(O)O)CCN(CP(=O)(O)O)CC1.[Sm+3] [Sm-DOTMP] | 25%
O=P(O)(O)CN(CCN(CP(=O)(O)O)CP(=O)(O)O)CP(=O)(O)O.[Sm+3] [Sm-EDTMP] | 36%
O=P(O)(O)CN(CCN(CP(=O)(O)O)CP(=O)(O)O)CP(=O)(O)O.[Ho+3] [Ho-EDTMP] | 23%

System: Staphylococcus aureus
Assay: Treatment of osteomyelitis in rats with 166Ho-DOTMP (serial radiographs of the leg)
Assay type: in vivo, Sprague Dawley rats
Conditions: rats with S. aureus osteomyelitis of left leg; intramuscular injection of 30 Gray (9 milliCurie); tourniquet above knee released after 10 minutes; in two weeks
Procedure: This example describes the successful treatment of osteomyelitis in rats using ^166Ho-DOTMP. Four 150 g male Sprague Dawley rats were anesthetized and prepared for surgery by shaving the left leg. The skin over the left tibia and fibula was opened, a hole was drilled into the bone marrow, and an 18-gauge needle was inserted into the bone marrow. Through the needle, a piece of 0 surgical suture and approximately 0.1 ml of Staphylococcus aureus culture in Trypticase soy broth were introduced into the bone marrow. The needle was removed and the bone defect sealed with cyanoacrylate glue. The skin was closed with 0 surgical suture. The rats were followed with serial radiographs of the left leg. Lytic lesions diagnostic of osteomyelitis developed in the fibula over the next three weeks. The entire bone appeared radiolucent. Two rats were followed without treatment. One week later, both of the rats died. […] Culture of the fluid grew Gram positive cocci consistent with the original Staphylococcus aureus infection. Two rats were treated with ^166Ho-DOTMP. A tourniquet was placed on the left leg above the knee. An intramuscular injection of 30 Gray (9 milliCurie) of ^166Ho-DOTMP was given after application of the tourniquet. The tourniquet was released after 10 minutes. The rats were followed with continued serial radiographs of the leg.

Structure (SMILES) | Radiographic appearance of tibia and fibula
O=P([O-])(O)CN1CCN(CP(=O)(O)O)CCN(CP(=O)([O-])O)CCN(CP(=O)(O)O)CC1.[166Ho] [^166Ho-DOTMP] | return to normal appearance of the tibia and fibula
